Experimental findings from PubChem BioAssay (NCI) are described below.

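Following 48 hours of exposure in 96-well plates, responses at five concentrations were used to interpolate endpoints linearly. TGI: total growth inhibition.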 Bounds are passed on as bounds.

Some test systems named below: NCI-H460 lung; CAKI-1 renal; OVCAR-8 ovarian; HCT-116 colon; SK-MEL-28 melanoma; U251 CNS; NCI-H226 lung; UACC-62 melanoma; MDA-N; TK-10 renal; 786-0 renal.
Common to all, as to assay: NCI-60 cell line screen, 48 h

Take `Nc1ccc(S2(c3ccc(N)cc3)C=C(c3ccccc3)C(c3ccccc3)=C2)cc1`: the TGI in the experiment on NCI-H460 lung was greater than 100 µM; in the experiment with CAKI-1 renal, greater than 22.6 µM; with OVCAR-8 ovarian, 98.4 µM; with HCT-116 colon it was greater than 100 µM; in the experiment with SK-MEL-28 melanoma, greater than 100 µM; in the experiment with U251 CNS, greater than 100 µM. For the same molecule, the TGI was greater than 63.3 µM in the experiment on NCI-H226 lung; greater than 100 µM in the experiment with UACC-62 melanoma; greater than 100 µM with MDA-N; greater than 85.5 µM in the experiment on TK-10 renal; greater than 72.1 µM in the experiment on 786-0 renal.

Regarding `CC(=O)NC1c2ccccc2C(C)(C)C12CCC1(CC2)OCCO1` (configuration not stated), the TGI was greater than 10 µM in the experiment with NCI-H460 lung; greater than 100 µM with CAKI-1 renal; greater than 100 µM in the experiment on OVCAR-8 ovarian; greater than 100 µM in the experiment with HCT-116 colon; greater than 100 µM in the experiment with SK-MEL-28 melanoma; greater than 100 µM with U251 CNS. Moreover, the TGI in the experiment on NCI-H226 lung, in the experiment with UACC-62 melanoma, in the experiment with MDA-N, in the experiment with TK-10 renal and in the experiment on 786-0 renal was greater than 100 µM throughout.

Regarding `Cc1nc2sc3ccccc3n2c(=O)c1N=Nc1ccc(Cl)cc1`, the TGI in the experiment with NCI-H460 lung, with CAKI-1 renal, in the experiment with OVCAR-8 ovarian, in the experiment with HCT-116 colon, with SK-MEL-28 melanoma and in the experiment with U251 CNS was greater than 100 µM each time. For the same molecule, the TGI with NCI-H226 lung, in the experiment with UACC-62 melanoma, in the experiment with MDA-N, in the experiment on TK-10 renal and with 786-0 renal was greater than 100 µM throughout.

`CN(C)c1ccc(C2SCC(=O)N2c2ccc(Oc3ccc(Cl)cc3)c(Cl)c2)cc1` (configuration not stated): the TGI in the experiment on NCI-H460 lung is 49.4 µM; with CAKI-1 renal it was greater than 100 µM; in the experiment on OVCAR-8 ovarian, 86.4 µM; in the experiment with HCT-116 colon it was 32.7 µM; in the experiment with SK-MEL-28 melanoma, greater than 100 µM; in the experiment with U251 CNS, 53.9 µM. Also, the TGI was greater than 100 µM in the experiment with NCI-H226 lung; 42.7 µM in the experiment on UACC-62 melanoma; 58.5 µM with MDA-N; greater than 100 µM in the experiment with TK-10 renal; 41.7 µM in the experiment with 786-0 renal.

Take `CC(=O)[C@@]1(O)CC[C@H]2[C@@H]3C[C@H](C)C4=CC(=O)C=C[C@]4(C)[C@@]3(F)[C@@H](O)C[C@@]21C`: the TGI with NCI-H460 lung, in the experiment with CAKI-1 renal, with OVCAR-8 ovarian, in the experiment with HCT-116 colon, in the experiment with SK-MEL-28 melanoma and in the experiment with U251 CNS was greater than 100 µM each time. Moreover, the TGI in the experiment on NCI-H226 lung, with UACC-62 melanoma, in the experiment on MDA-N, in the experiment on TK-10 renal and in the experiment with 786-0 renal was greater than 100 µM throughout.

With `N#Cc1c(Cl)cc(Cl)n2c1nc1ccccc12`, the TGI with NCI-H460 lung worked out at 23.7 µM; with CAKI-1 renal, 7.67 µM; with OVCAR-8 ovarian, 35 µM; in the experiment on HCT-116 colon, 29.8 µM; in the experiment on SK-MEL-28 melanoma, 20.3 µM; in the experiment on U251 CNS, 55.5 µM. Also, the TGI is 33.8 µM in the experiment with NCI-H226 lung; 29.8 µM with UACC-62 melanoma; 26.3 µM with MDA-N; 18.1 µM in the experiment on TK-10 renal; 7.63 µM in the experiment on 786-0 renal.

On to `CCOC(=O)C1C2CCC1CC(=NNc1ccc([N+](=O)[O-])cc1[N+](=O)[O-])C2` (configuration not stated), for which the TGI in the experiment on NCI-H460 lung, with CAKI-1 renal, in the experiment with OVCAR-8 ovarian, in the experiment with HCT-116 colon, with SK-MEL-28 melanoma and with U251 CNS was greater than 50 µM in each case. Also, the TGI with NCI-H226 lung, with UACC-62 melanoma, with MDA-N, in the experiment with TK-10 renal and in the experiment on 786-0 renal was greater than 50 µM throughout.

As for `CC(C)NC(=O)OCCN=c1c2ccccc2ccc2ccccc12`, the TGI in the experiment with NCI-H460 lung, in the experiment on CAKI-1 renal, in the experiment with OVCAR-8 ovarian, with HCT-116 colon, in the experiment on SK-MEL-28 melanoma and in the experiment with U251 CNS was greater than 100 µM each time. Further, the TGI with NCI-H226 lung, in the experiment with UACC-62 melanoma, with MDA-N, with TK-10 renal and in the experiment with 786-0 renal was greater than 100 µM throughout.

On to `C=CCOc1ccc(C2C(C(=O)OCC)C(=O)CC(C)(O)C2C(=O)OCC)cc1OC` (configuration not stated), for which the TGI in the experiment with NCI-H460 lung, in the experiment on CAKI-1 renal, with OVCAR-8 ovarian, in the experiment on HCT-116 colon, with SK-MEL-28 melanoma and in the experiment with U251 CNS was greater than 100 µM throughout. The TGI with NCI-H226 lung, with UACC-62 melanoma, in the experiment with MDA-N, in the experiment with TK-10 renal and in the experiment with 786-0 renal was greater than 100 µM each time.

Take `C=C1CN2CC(=C)CN(C1)CS(=O)(=O)N1CC(=C)CN(CC(=C)C1)S(=O)(=O)N1CC(=C)CN(CC(=C)C1)S(=O)(=O)C2`: the TGI in the experiment with NCI-H460 lung is greater than 100 µM; in the experiment on CAKI-1 renal, greater than 100 µM; in the experiment on OVCAR-8 ovarian it was greater than 100 µM; with HCT-116 colon it was greater than 100 µM; with SK-MEL-28 melanoma it was 45.6 µM; with U251 CNS, greater than 100 µM. The TGI with NCI-H226 lung is 71.5 µM; in the experiment on UACC-62 melanoma, greater than 100 µM; with MDA-N, greater than 100 µM; in the experiment on TK-10 renal, 51.5 µM; in the experiment on 786-0 renal it was 58.9 µM.

In the case of `CC(C)(C)OC(=O)NCCCNC1(c2cc3ccccc3s2)CCCCC1`, the TGI worked out at 30.5 µM in the experiment with NCI-H460 lung; 26.8 µM in the experiment on CAKI-1 renal; 35.1 µM with OVCAR-8 ovarian; 24.8 µM in the experiment with HCT-116 colon; 29.9 µM in the experiment with SK-MEL-28 melanoma; 74.8 µM in the experiment with U251 CNS. Besides, the TGI in the experiment with NCI-H226 lung was 46.1 µM; in the experiment on UACC-62 melanoma, 31.4 µM; with MDA-N, 28.8 µM; in the experiment on TK-10 renal it was 32 µM; in the experiment on 786-0 renal, 28.8 µM.

Take `CCCCN=C(c1ccccc1)N1CCOCC1`: the TGI in the experiment on NCI-H460 lung, in the experiment on CAKI-1 renal, in the experiment on OVCAR-8 ovarian, in the experiment with HCT-116 colon, in the experiment on SK-MEL-28 melanoma and in the experiment on U251 CNS was greater than 100 µM in each case. Further, the TGI in the experiment with NCI-H226 lung, in the experiment with UACC-62 melanoma, in the experiment on MDA-N, with TK-10 renal and with 786-0 renal was greater than 100 µM throughout.
